Assay results taken from PubChem BioAssay AID1259407 (Chemical Carcinogenesis Research Information System (CCRIS), 2018).
Calls of active or inactive are those of the source. No rule for the calls is given here.

Tested on: CCRIS mutagenicity, Ames/micronucleus/aberration tests
Experiment: CCRIS mutagenicity studies

O=C(Nc1cccc2c(=O)c3c(ccc4c5cc(NC(=O)c6ccccc6)c6c(=O)c7ccccc7c(=O)c6c5[nH]c43)c(=O)c12)c1ccccc1
mutagenic call (Test System: AMES SALMONELLA TYPHIMURIUM, Strain/Indicator: TA98, Metabolic Activation: HAMSTER, LIVER, S-9, AROCLOR 1254 (10%), Method: PREINCUBATION): inactive; negative | mutagenic call (Test System: AMES SALMONELLA TYPHIMURIUM, Strain/Indicator: TA98, Metabolic Activation: NONE, Method: PREINCUBATION): inactive; negative | mutagenic call (Test System: AMES SALMONELLA TYPHIMURIUM, Strain/Indicator: TA98, Metabolic Activation: RAT, LIVER, S-9, AROCLOR 1254 (10%), Method: PREINCUBATION): inactive; negative | mutagenic call (Test System: AMES SALMONELLA TYPHIMURIUM, Strain/Indicator: TA100, Metabolic Activation: HAMSTER, LIVER, S-9, AROCLOR 1254 (10%), Method: PREINCUBATION): inactive; negative | mutagenic call (Test System: AMES SALMONELLA TYPHIMURIUM, Strain/Indicator: TA100, Metabolic Activation: NONE, Method: PREINCUBATION): inactive; negative | mutagenic call (Test System: AMES SALMONELLA TYPHIMURIUM, Strain/Indicator: TA100, Metabolic Activation: RAT, LIVER, S-9, AROCLOR 1254 (10%), Method: PREINCUBATION): inactive; negative | mutagenic call (Test System: AMES SALMONELLA TYPHIMURIUM, Strain/Indicator: TA1535, Metabolic Activation: HAMSTER, LIVER, S-9, AROCLOR 1254 (10%), Method: PREINCUBATION): inactive; negative | mutagenic call (Test System: AMES SALMONELLA TYPHIMURIUM, Strain/Indicator: TA1535, Metabolic Activation: NONE, Method: PREINCUBATION): inactive; negative | mutagenic call (Test System: AMES SALMONELLA TYPHIMURIUM, Strain/Indicator: TA1535, Metabolic Activation: RAT, LIVER, S-9, AROCLOR 1254 (10%), Method: PREINCUBATION): inactive; negative | mutagenic call (Test System: AMES SALMONELLA TYPHIMURIUM, Strain/Indicator: TA1537, Metabolic Activation: HAMSTER, LIVER, S-9, AROCLOR 1254 (10%), Method: PREINCUBATION): inactive; negative | mutagenic call (Test System: AMES SALMONELLA TYPHIMURIUM, Strain/Indicator: TA1537, Metabolic Activation: NONE, Method: PREINCUBATION): inactive; negative | mutagenic call (Test System: AMES SALMONELLA TYPHIMURIUM, Strain/Indicator: TA1537, Metabolic Activation: RAT, LIVER, S-9, AROCLOR 1254 (10%), Method: PREINCUBATION): inactive; negative | mutagenic call (Test System: Ames Salmonella typhimurium, Strain/Indicator: TA98, Metabolic Activation: None, Method: Preincubation): active; positive | mutagenic call (Test System: Ames Salmonella typhimurium, Strain/Indicator: TA100, Metabolic Activation: None, Method: Preincubation): inactive; negative | mutagenic call (Test System: Ames Salmonella typhimurium, Strain/Indicator: TA102, Metabolic Activation: None, Method: Preincubation): inactive; negative | mutagenic call (Test System: Ames Salmonella typhimurium, Strain/Indicator: TA1535, Metabolic Activation: None, Method: Preincubation): inactive; negative
